Laboratory results from US20070117743A1, “New antitumoral compounds” (priority 2003, published 2007).

Legend:
Type in all cases: cell-based, human
[1] = tested on: A-549; experiment: SRB colorimetric assay of cell growth and viability, A-549; details: 48 hours exposure
[2] = tested on: SK-MEL-28; experiment: SRB colorimetric assay of cell growth and viability, SK-MEL-28; details: 48 hours exposure, SRB
[3] = tested on: HT-29; experiment: SRB colorimetric assay of cell growth and viability, HT-29; details: 48 hours exposure
[4] = tested on: LoVo; experiment: SRB colorimetric assay of cell growth and viability, LoVo; details: 48 hours exposure
[5] = tested on: LoVo-Dox; experiment: SRB colorimetric assay of cell growth and viability, LoVo-Dox; details: 48 hours exposure
In short: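 After 48 hours continuous exposure to samples spanning 10 to 10^−8 μg/mL, biomass was quantified by sulforhodamine B staining of TCA-fixed cells (OD 490 nm). Cells, 5×10^3 per well in RPMI 1640 10% FBS, had attached 18 hours first; GI, TGI and LC derived from triplicate wells.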

[6] = tested on: DU-145; experiment: SRB colorimetric assay of cell growth and viability, DU-145; details: 48 hours exposure, SRB
[7] = tested on: LNCaP; experiment: SRB colorimetric assay of cell growth and viability, LNCaP; details: 48 hours exposure, SRB
[8] = tested on: SK-BR-3; experiment: SRB colorimetric assay of cell growth and viability, SK-BR-3; details: 48 hours exposure, SRB
[9] = tested on: IGROV-1; experiment: SRB colorimetric assay of cell growth and viability, IGROV-1; details: 48 hours exposure, SRB
[10] = tested on: IGROV-ET; experiment: SRB colorimetric assay of cell growth and viability, IGROV-ET; details: 48 hours exposure, SRB
[11] = tested on: HeLa; experiment: SRB colorimetric assay of cell growth and viability, HeLa; details: 48 hours exposure
[12] = tested on: HeLa-APL; experiment: SRB colorimetric assay of cell growth and viability, HeLa-APL; details: 48 hours exposure
[13] = tested on: K-562; experiment: SRB colorimetric assay of cell growth and viability, K-562; details: 48 hours exposure
[14] = tested on: PANC-1; experiment: SRB colorimetric assay of cell growth and viability, PANC-1; details: 48 hours exposure

## C/C=C1\NC(=O)[C@H](Cc2ccccc2)NC(=O)[C@@H](C(C)C)NC(=O)[C@@H]([C@@H](C)CC)NC(=O)[C@H](NC(=O)[C@H](NC(=O)[C@H](CCCN)NC(=O)[C@H]2CCCN2C(=O)[C@H](NC(=O)[C@@H](NC(=O)[C@@H](NC(=O)[C@H](NC(=O)CC[C@@H](C)[C@H]2CC[C@H]3[C@@H]4CC[C@@H]5C[C@H](OC(=O)C(F)(F)F)CC[C@]5(C)[C@H]4CC[C@]23C)C(C)C)[C@@H](C)OC(=O)C(F)(F)F)C(C)C)C(C)C)[C@@H](C)CC)[C@@H](C)OC(=O)[C@H](C(C)C)NC1=O [Compound 97, [Thr(OTfa)^12, Lit(OTfa)^14]-Kahalalide F]
[1]; SRB
  TGI A-549: 1.96E−06 Molar
[1]; SRB, read-out: GI50 A-549
  GI50: 1050 nM
[1]; SRB, read-out: LC50 A-549
  CC50: 3640 nM
[2]
  GI50: 128 nM
  TGI MEL-28: 2.21E−07 Molar
[2]; read-out: LC50 MEL-28
  CC50: 384 nM
[3]; SRB
  TGI HT-29: 3.36E−07 Molar
[3]; SRB, read-out: GI50 HT-29
  GI50: 176 nM
[3]; SRB, read-out: LC50 HT-29
  CC50: 1190 nM
[4]; SRB
  GI50: 128 nM
  TGI LOVO: 3.01E−07 Molar
[4]; SRB, read-out: LC50 LOVO
  CC50: 1090 nM
[5]; SRB
  GI50: 186 nM
  TGI LOVO-DOX: 3.96E−07 Molar
[5]; SRB, read-out: LC50 LOVO-DOX
  CC50: 4120 nM
[6]
  GI50: 517 nM
  LC50 (concentration causing 50% net cell kill): 2810 nM
  TGI DU-145: 1.21E−06 Molar
[7]
  TGI LN-caP: 1.81E−06 Molar
[7]; read-out: GI50 LN-caP
  GI50: 866 nM
[7]; read-out: LC50 LN-caP
  CC50: 3770 nM
[8]
  GI50: 45.5 nM
  LC50: 324 nM
  TGI SK-BR-3: 1.17E−07 Molar
[9]
  GI50: 244 nM
  LC50 (concentration causing 50% net cell killing): 2200 nM
  TGI IGROV: 4.64E−07 Molar
[10]
  GI50: 232 nM
  TGI IGROV-ET: 4.57E−07 Molar
[10]; read-out: LC50 IGROV-ET
  CC50: 2380 nM
[11]; SRB
  GI50: 809 nM
  TGI HELA: 1.78E−06 Molar
[11]; SRB, read-out: LC50 HELA
  CC50: 3890 nM
[12]; SRB
  GI50: 751 nM
  TGI HELA-APL: 1.61E−06 Molar
[12]; SRB, read-out: LC50 HELA-APL
  CC50: 3440 nM
[13]; SRB
  GI50: 1280 nM
  TGI K-562: 2.34E−06 Molar
[13]; SRB, read-out: LC50 K-562
  CC50: 4270 nM
[14]; SRB
  GI50: 2640 nM
  TGI PANC-1: 5.22E−06 Molar
[14]; SRB, read-out: LC50 PANC-1
  CC50: 5220 nM

## C/C=C1\NC(=O)[C@H](Cc2ccccc2)NC(=O)[C@@H](C(C)C)NC(=O)[C@@H]([C@@H](C)CC)NC(=O)[C@H](NC(=O)[C@H](NC(=O)[C@H](CCCN)NC(=O)[C@H]2CCCN2C(=O)[C@H](NC(=O)[C@@H](NC(=O)[C@@H](NC(=O)[C@@H](C(C)C)N(CCCCCCC)CCCCCCC)[C@@H](C)O)C(C)C)C(C)C)[C@@H](C)CC)[C@@H](C)OC(=O)[C@H](C(C)C)NC1=O [Compound 98, [no5-MeHex^14-N-(Hep)2-D-Val^13]-Kahalalide F]
[1]; A-549
  TGI A-549: 6.40E−06 Molar
[2]
  TGI MEL-28: 6.40E−06 Molar
[3]; HT-29
  TGI HT-29: 6.40E−06 Molar
[4]; LOVO
  TGI LOVO: 6.40E−06 Molar
[5]; LOVO-DOX
  TGI LOVO-DOX: 6.40E−06 Molar
[6]
  TGI DU-145: 6.40E−06 Molar
[7]
  TGI LN-caP: 6.40E−06 Molar
[8]
  TGI SK-BR-3: 6.40E−06 Molar
[9]
  TGI IGROV: 6.40E−06 Molar
[10]
  TGI IGROV-ET: 6.40E−06 Molar
[11]; HELA
  TGI HELA: 2.43E−06 Molar
[12]; HELA-APL
  TGI HELA-APL: 3.46E−06 Molar
[13]; K-562
  TGI K-562: 6.40E−06 Molar
[14]; PANC-1
  TGI PANC-1: 6.40E−06 Molar
